Data published in publication PMC7054460 (2020).

What was measured:
[1] = system: Y2 (DNA, duplex, free-base (2H) porphyrin-dU (porphyrin via rigid acetylene linker) at 10 of strand 1 and at 4 of strand 2) CGCATTATATGC/GCATATAATGCG; experiment: CD titration (porphyrin exciton coupling), Scatchard fit; details: Na+ 100 mM NaCl + 100 mM Na2HPO4 (assumed from Fig. 2 legend); 4 μM DNA; EtBr 40-800 μM; apparent; local site between adjacent porphyrins; buffer not given; per base
[2] = system: Y1 (DNA, duplex, free-base (2H) porphyrin-dU (porphyrin via rigid acetylene linker) at 5 of strand 1 and at 4 of strand 2) CGCATTATATGC/GCATATAATGCG; experiment: as above; details: Na+ 100 mM NaCl + 100 mM Na2HPO4 (assumed from Fig. 2 legend); 4 μM DNA; EtBr 40-800 μM; apparent; global intercalation; buffer not given; per base

Ka (association binding constant) [1]: 3.54 ± 0.4 × 10^5 M^-1
Ka (association binding constant) [2]: 1.43 ± 0.2 × 10^5 M^-1
SMILES: CC[n+]1c(-c2ccccc2)c2cc(N)ccc2c2ccc(N)cc21
